The values that follow come from patent US12172983B2, “EGFR inhibitors” (Blueprint Medicines Corporation, priority 2019, dated 2024).

Assay [1] deals with phosphorylation of EGFR (Tyr1068) in NCI-H1975 cell line that harbors the EGFR L858R T790M mutations. Nature of the assay: NCI-H1975 pEGFR AlphaLISA assay. The class given is cell-based. The conditions noted are these: 4-5 hours incubation, read-out: Ext pEGFR H1975. Summed up:
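Phospho-EGFR Tyr1068 AlphaLISA readout: lysates taken from compound-treated H1975 cells (L858R T790M EGFR) after a 4-5 h exposure at 37 °C. Cells had adhered overnight beforehand. IC50 derived by plotting % pEGFR inhibition against log compound concentration.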

The next assay concerns the target T1, EGFR (L858R T790M C797S) (Homo sapiens, UniProt P00533, C797S/L858R/T790M).
T1 construct: purchased SignalChem E10-122VG
Nature of the assay: Biochemical EGFR inhibition assay (Caliper mobility shift), EGFR LRTMCS mutant. The conditions noted are these: inhibitory activity against EGFR LRTMCS mutant; apparent IC50; read-out: Ext Enz LRTMCS. The gist of the method: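 Caliper mobility shift read-out: product and substrate peptides separated by electrophoresis and quantified. Reactions at 25° C. taken to 10–20% peptide phosphorylation, quenched with 35 mM EDTA. Apparent IC50 from percent activity vs log [compound].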

The mark [2] stands for this setting: Homo sapiens, NCI-H1975, inhibition of phosphorylation of mutant EGFR in NCI-H1975 cells.

Where two headings read alike, the source gives them in different places.

T1 sequence (P00533 25-1210 T790M/C797S/L858R): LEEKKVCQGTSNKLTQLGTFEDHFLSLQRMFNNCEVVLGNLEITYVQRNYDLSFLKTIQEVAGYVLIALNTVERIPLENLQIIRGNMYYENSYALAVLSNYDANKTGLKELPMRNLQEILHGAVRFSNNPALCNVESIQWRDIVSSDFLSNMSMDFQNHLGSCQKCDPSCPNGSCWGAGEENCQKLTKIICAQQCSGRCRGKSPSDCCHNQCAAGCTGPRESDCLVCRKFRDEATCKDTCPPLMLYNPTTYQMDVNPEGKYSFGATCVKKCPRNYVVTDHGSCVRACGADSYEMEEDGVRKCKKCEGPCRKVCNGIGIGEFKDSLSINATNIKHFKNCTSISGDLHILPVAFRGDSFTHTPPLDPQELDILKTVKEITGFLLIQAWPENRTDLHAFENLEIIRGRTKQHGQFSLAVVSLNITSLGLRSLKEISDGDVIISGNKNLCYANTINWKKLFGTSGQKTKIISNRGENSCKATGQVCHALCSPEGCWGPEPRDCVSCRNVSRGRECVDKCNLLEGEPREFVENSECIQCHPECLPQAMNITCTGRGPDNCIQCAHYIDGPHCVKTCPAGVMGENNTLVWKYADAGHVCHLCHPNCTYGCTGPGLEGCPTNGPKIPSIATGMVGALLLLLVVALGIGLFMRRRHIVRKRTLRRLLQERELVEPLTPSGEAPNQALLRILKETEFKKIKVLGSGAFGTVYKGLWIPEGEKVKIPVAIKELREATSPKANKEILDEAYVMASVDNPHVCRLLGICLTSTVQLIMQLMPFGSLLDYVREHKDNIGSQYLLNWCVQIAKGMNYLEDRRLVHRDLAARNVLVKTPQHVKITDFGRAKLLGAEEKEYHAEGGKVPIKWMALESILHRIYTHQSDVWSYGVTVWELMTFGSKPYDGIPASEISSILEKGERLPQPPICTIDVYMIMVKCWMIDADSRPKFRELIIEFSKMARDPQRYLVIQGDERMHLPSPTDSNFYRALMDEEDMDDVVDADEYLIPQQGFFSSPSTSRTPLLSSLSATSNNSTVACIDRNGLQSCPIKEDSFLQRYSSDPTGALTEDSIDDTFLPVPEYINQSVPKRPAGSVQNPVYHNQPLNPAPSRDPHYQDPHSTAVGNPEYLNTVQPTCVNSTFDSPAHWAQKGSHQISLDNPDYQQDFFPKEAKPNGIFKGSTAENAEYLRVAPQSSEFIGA

Consider `CC(C)c1ncc(N2CC(CS(C)(=O)=O)C2)c2cnc(Nc3ccnc(N4CC[C@@H](O)[C@@](C)(F)C4)n3)cc12` (single isomer, unassigned) [Compound 70], for which the IC50 was at most 10 nM in assay [1] (setting [2]) and at most 15 nM at EGFR (L858R T790M C797S).
In the same order, the values of `CO[C@@H]1CCN(c2nccc(Nc3cc4c(C(C)C)ccc(N5C[C@H](CS(C)(=O)=O)[C@H]5C)c4cn3)n2)C[C@]1(C)F` (single isomer, unassigned) [Compound 185] are at most 10 nM and 20.1 to 30 nM.
On the same counts, the results for `CC(C)c1ccc(N2CC(CS(C)(=O)=O)C2)c2cnc(Nc3ccnc(N4CC[C@](C)(O)[C@@](C)(F)C4)n3)cc12` (single isomer, unassigned) [Compound 114, (3S,4S)-3-fluoro-1-[4-({8-[3-(methanesulfonylmethyl)azetidin-1-yl]-5-(propan-2-yl)isoquinolin-3-yl}amino)pyrimidin-2-yl]-3,4-dimethylpiperidin-4-ol or (3R,4R)-3-fluoro-1-[4-({8-[3-(methanesulfonylmethyl)azetidin-1-yl]-5-(propan-2-yl)isoquinolin-3-yl}amino)pyrimidin-2-yl]-3,4-dimethylpiperidin-4-ol] are 30.1 to 50 nM and 30.1 to 100 nM.
As to `CCS(=O)(=O)CC1CN(c2ccc(C(C)C)c3cc(Nc4ccnc(N5CC[C@@](C)(O)[C@@H](F)C5)n4)ncc23)C1` [Compound 276, (3S,4R)-1-{4-[(8-{3-[(ethanesulfonyl)methyl]azetidin-1-yl}-5-(propan-2-yl)isoquinolin-3-yl)amino]pyrimidin-2-yl}-3-fluoro-4-methylpiperidin-4-ol], the IC50 is at most 10 nM in assay [1] (setting [2]) and at most 15 nM on EGFR (L858R T790M C797S).
On the same counts, the results for `CCS(=O)(=O)C[C@H]1CN(c2ccc(F)c3cc(Nc4ccnc(N5CC[C@@H](OC)[C@@H](F)C5)n4)ncc23)[C@@H]1C` [Compound 85, 8-[(2R,3S)-3-[(ethanesulfonyl)methyl]-2-methylazetidin-1-yl]-5-fluoro-N-{2-[(3S,4R)-3-fluoro-4-methoxypiperidin-1-yl]pyrimidin-4-yl}isoquinolin-3-amine] are 10.1 to 20 nM and at most 15 nM.
On the same counts, the results for `CCS(=O)(=O)CC1CN(c2ccc(C(C)C)c3cc(Nc4ccnc(N5CC[C@@H](O)[C@@](C)(F)C5)n4)ncc23)C1` (single isomer, unassigned) [Compound 110] are at most 10 nM and at most 15 nM.
In the case of `CC(C)c1nnc(N2CC(CS(C)(=O)=O)C2)c2cnc(Nc3ccnc(N4CC[C@]5(CCO5)C(F)(F)C4)n3)cc12` (single isomer, unassigned) [Compound 209, (S)-N-(2-(5,5-difluoro-1-oxa-7-azaspiro[3.5]nonan-7-yl)pyrimidin-4-yl)-1-isopropyl-4-(3-((methylsulfonyl)methyl)azetidin-1-yl)pyrido[3,4-d]pyridazin-7-amine or (R)-N-(2-(5,5-difluoro-1-oxa-7-azaspiro[3.5]nonan-7-yl)pyrimidin-4-yl)-1-isopropyl-4-(3-((methylsulfonyl)methyl)azetidin-1-yl)pyrido[3,4-d]pyridazin-7-amine], the values for the IC50 (in assay [1] (setting [2]); on EGFR (L858R T790M C797S)) were 30.1 to 50 nM and at most 15 nM, respectively.
With `CC(C)c1ccc(N2CC(CS(C)(=O)=O)C2)c2cnc(Nc3ccnc(N4CC[C@](C)(O)C[C@@H]4C)n3)cc12` (single isomer, unassigned) [Compound 45, (2S,4S)-1-[4-({8-[3-(methanesulfonylmethyl)azetidin-1-yl]-5-(propan-2-yl)isoquinolin-3-yl}amino)pyrimidin-2-yl]-2,4-dimethylpiperidin-4-ol or (2R,4R)-1-[4-({8-[3-(methanesulfonylmethyl)azetidin-1-yl]-5-(propan-2-yl)isoquinolin-3-yl}amino)pyrimidin-2-yl]-2,4-dimethylpiperidin-4-ol], the IC50 was 10.1 to 20 nM in assay [1] (inhibition of phosphorylation of mutant EGFR in NCI-H1975 cells) and at most 15 nM on EGFR (L858R T790M C797S).
For the compound `CO[C@@H]1CCN(c2nccc(Nc3cc4cccc(N5C[C@H](CS(C)(=O)=O)[C@H]5C)c4cn3)n2)C[C@@H]1F` [Compound 5, N-{2-[(3S,4R)-3-fluoro-4-methoxypiperidin-1-yl]pyrimidin-4-yl}-8-[(2R,3S)-3-(methanesulfonylmethyl)-2-methylazetidin-1-yl]isoquinolin-3-amine], the IC50 in assay [1] (setting [2]) is 10.1 to 20 nM; at EGFR (L858R T790M C797S) it was at most 15 nM.
In the case of `CC(C)c1ccc(N2C[C@H](CS(C)(=O)=O)[C@H]2C)c2cnc(Nc3ccnc(N4CC[C@@H](OC[C@H](C)O)[C@@H](F)C4)n3)cc12` (single isomer, unassigned) [Compound 247, (2S)-1-{[(3S,4R)-3-fluoro-1-[4-({8-[(2R,3S)-3-(methanesulfonylmethyl)-2-methylazetidin-1-yl]-5-(propan-2-yl)isoquinolin-3-yl}amino)pyrimidin-2-yl]piperidin-4-yl]oxy}propan-2-ol or (2R)-1-{[(3S,4R)-3-fluoro-1-[4-({8-[(2R,3S)-3-(methanesulfonylmethyl)-2-methylazetidin-1-yl]-5-(propan-2-yl)isoquinolin-3-yl}amino)pyrimidin-2-yl]piperidin-4-yl]oxy}propan-2-ol], the values for the IC50 (in assay [1] (setting [2]); at EGFR (L858R T790M C797S)) were at most 10 nM and at most 15 nM, respectively.
For `CC(C)c1ccc(N2C[C@H](CS(C)(=O)=O)[C@H]2C)c2cnc(Nc3ccnc(N4CC[C@](C)(O)C(F)(F)C4)n3)cc12` (single isomer, unassigned) [Compound 210, (4S)-3,3-difluoro-1-[4-({8-[(2R,3S)-3-(methanesulfonylmethyl)-2-methylazetidin-1-yl]-5-(propan-2-yl)isoquinolin-3-yl}amino)pyrimidin-2-yl]-4-methylpiperidin-4-ol or (4R)-3,3-difluoro-1-[4-({8-[(2R,3S)-3-(methanesulfonylmethyl)-2-methylazetidin-1-yl]-5-(propan-2-yl)isoquinolin-3-yl}amino)pyrimidin-2-yl]-4-methylpiperidin-4-ol], the IC50 in assay [1] (setting [2]) lay in the range of 10.1 to 20 nM; on EGFR (L858R T790M C797S), 20.1 to 30 nM.
In the same order, the values of `CCS(=O)(=O)C[C@H]1CN(c2ncc(C(C)C)c3cc(Nc4ccnc(N5CC[C@@H](OC)[C@@H](O)C5)n4)ncc23)[C@@H]1C` (single isomer, unassigned) [Compound 178] are at most 10 nM and at most 15 nM.
On the same counts, the results for `CO[C@H]1CCN(c2nccc(Nc3cc4c(C(C)C)ccc(N5C[C@H](CS(C)(=O)=O)[C@H]5C)c4cn3)n2)C[C@H]1OCCO` (single isomer, unassigned) [Compound 295, 2-{[(3R,4S)-1-[4-({8-[(2R,3S)-3-(methanesulfonylmethyl)-2-methylazetidin-1-yl]-5-(propan-2-yl)isoquinolin-3-yl}amino)pyrimidin-2-yl]-4-methoxypiperidin-3-yl]oxy}ethan-1-ol or 2-{[(3S,4R)-1-[4-({8-[(2R,3S)-3-(methanesulfonylmethyl)-2-methylazetidin-1-yl]-5-(propan-2-yl)isoquinolin-3-yl}amino)pyrimidin-2-yl]-4-methoxypiperidin-3-yl]oxy}ethan-1-ol] are at most 10 nM and at most 15 nM.
For the compound `CO[C@H]1CN(c2nccc(Nc3cc4c(C(C)C)ccc(N5CC(CS(C)(=O)=O)C5)c4cn3)n2)C[C@@H](F)[C@H]1O` (racemic) [Compound 147, (3S,4R,5R)-3-fluoro-1-(4-((5-isopropyl-8-(3-((methylsulfonyl)methyl)azetidin-1-yl)isoquinolin-3-yl)amino)pyrimidin-2-yl)-5-methoxypiperidin-4-ol and (3R,4S,5S)-3-fluoro-1-(4-((5-isopropyl-8-(3-((methylsulfonyl)methyl)azetidin-1-yl)isoquinolin-3-yl)amino)pyrimidin-2-yl)-5-methoxypiperidin-4-ol], the figures for the IC50 (in assay [1] (setting [2]); at EGFR (L858R T790M C797S)) were 10.1 to 20 nM and at most 15 nM, respectively.
`CCS(=O)(=O)C[C@H]1CN(c2cccc3cc(Nc4ccnc(N5C[C@@H](F)[C@@H](O)C(C)(C)C5)n4)ncc23)[C@@H]1C` (single isomer, unassigned) [Compound 66, (4S,5R)-1-[4-({8-[(2R,3S)-3-[(ethanesulfonyl)methyl]-2-methylazetidin-1-yl]isoquinolin-3-yl}amino)pyrimidin-2-yl]-5-fluoro-3,3-dimethylpiperidin-4-ol or (4R,5S)-1-[4-({8-[(2R,3S)-3-[(ethanesulfonyl)methyl]-2-methylazetidin-1-yl]isoquinolin-3-yl}amino)pyrimidin-2-yl]-5-fluoro-3,3-dimethylpiperidin-4-ol]: the figures for the IC50 (in assay [1] (setting [2]); on EGFR (L858R T790M C797S)) were at most 10 nM and at most 15 nM, respectively.
On the same counts, the results for `CO[C@@H]1[C@H](O)CN(c2nccc(Nc3cc4c(C(C)C)ccc(N5CC(CS(C)(=O)=O)C5)c4cn3)n2)C[C@@H]1F` (single isomer, unassigned) [Compound 148, (3R,4R,5S)-5-fluoro-1-[4-({8-[3-(methanesulfonylmethyl)azetidin-1-yl]-5-(propan-2-yl)isoquinolin-3-yl}amino)pyrimidin-2-yl]-4-methoxypiperidin-3-ol or (3S,4S,5R)-5-fluoro-1-[4-({8-[3-(methanesulfonylmethyl)azetidin-1-yl]-5-(propan-2-yl)isoquinolin-3-yl}amino)pyrimidin-2-yl]-4-methoxypiperidin-3-ol] are at most 10 nM and at most 15 nM.
